Source: patent publication US12118414B2, “BCL-2 proteins degraders for cancer treatment” (BioVentures, LLC, priority 2018, dated 2024)

Key:
Bcl-w = biological target: T1, Bcl-w (Homo sapiens, UniProt Q92843); assay: AlphaLISA competitive binding assay, Bcl-w; conditions: His-tagged Bcl-w, biotin-tagged BIM peptide, 24 h incubation
T1 construct: purchased Sigma-Aldrich
T1 sequence (Q92843 1-193): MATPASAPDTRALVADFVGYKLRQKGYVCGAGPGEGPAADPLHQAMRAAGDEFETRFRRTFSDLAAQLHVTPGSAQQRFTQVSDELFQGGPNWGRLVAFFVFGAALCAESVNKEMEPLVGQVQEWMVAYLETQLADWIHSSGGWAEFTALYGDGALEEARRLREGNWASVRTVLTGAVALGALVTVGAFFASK
Method: (§1) Purified recombinant His-tagged Bcl-xL/Bcl-2/Bcl-w (Sigma-Aldrich, St. Louis, MO) were incubated with increasing concentrations of compound #55 and a fixed concentration of biotin-tagged Bad (for Bcl-xL) or BIM peptides (for Bcl-2 and Bcl-w) (AnaSpec, Fremont, CA) to a final volume of 40 µL in 96-well PCR plate. After 24 h incubation, 5 μL 6×His-Acceptor beads (final concentration 20 μg/mL) (PerkinElmer, Houston, TX) were added to each well and incubated for 1 h. Thereafter, 5 μL streptavidin-donor beads were added (final concentration 20 μg/mL) (PerkinElmer) to each well and incubated for 0.5 h. At the end of the incubation period, 17 μL of each sample was transferred in adjacent wells of 384-well proxy plate. The plate was scanned using Alpha program on Biotek's Synergy Neo2 multi-mode plate reader. The inhibition constant (Ki) was calculated using non-linear regression, one site, competitive binding, Fit Ki function on GraphPad Prism based on experimentally determined Kd for each protein/peptide pair.

MOLT4 cells = assay: MTS cell viability assay in MOLT4 cells
Method: (§6) Cell viability was measured by tetrazolium-based MTS assay and IC50 was calculated as a percentage of vehicle-treated cells.

Bcl-xL [1] = biological target: T2, Bcl-xL (Homo sapiens, UniProt Q07817); assay: Western blot Bcl-xL degradation assay in MOLT4 cells; format: cell-based; set-up: endogenous in cells; host or cells: MOLT4
Method: (§2) MOLT4 cells and human platelets were incubated with increasing concentrations of compound #55 for 16 h. The cells were harvested and lysed in RIPA lysis buffer supplemented with protease and phosphatase inhibitor cocktails. An equal amount of protein (20 μg/lane) was resolved on a pre-cast 4-20% SDS-PAGE gel. Proteins were subsequently transferred to NOVEX PVDF membranes by electrophoresis. The membranes were blocked in blocking buffer (5% non-fat dry milk in TBS-T), and incubated with primary antibodies (at optimized concentrations) overnight at 4° C. After three washings in TBS-T, the membranes were incubated with an appropriate HRP-conjugated secondary antibody for 1 h at room temperature. After extensive washing for three times, the proteins of interest were detected with ECL western blotting detection reagents and recorded with autoradiography (Pierce Biotech, Rockford, IL, USA). The primary antibodies for Bcl-xL (Cat #2762), Bcl-2 (Cat #2872), Mcl-1 (Cat #5453) and β-actin (Cat #4970) were purchased from Cell Signaling technology. The relative band intensity was measured using ImageJ software and normalized to b-actin. The DC50 (concentration with 50% degradation) was calculated using GraphPad Prism. […] Bcl-2 levels were not detected, whereas Mcl-1 was unaffected with compound #55 treatment in MOLT4 cells (FIGS. 1B and 1D). […] The DC50 and Dmax values of compound #55 in platelets were >3 μM and 26%, respectively (FIG. 1E).
MOLT4 cells were incubated with a fixed concentration of compound #55 for increasing time points. In another experiment, cells were treated for 16 hours followed by drug withdrawal and further cultured for increasing time-points before harvesting them for Bcl-xL degradation assays. Bcl-xL levels were measured using Western blot analysis as described above. The relative band intensity was measured using ImageJ software and normalized to equal loading control β-actin.
Cell viability was measured by MTS assay.
Third, we sought to confirm that compound #55-induced Bcl-xL degradation depends on proteasomal activity.
Fourth, we sought to confirm that Bcl-xL degardation by compound #55 requires the binding with Bcl-xL protein.

H146 cells = assay: MTS cell viability assay in H146 cells; format: cell-based, human
Method: (§3) Small cell lung cancer H146 cells were incubated either with 500 nM ABT-199 (Bcl-2 inhibitor) or 125 nM compound #55 or the combination of both for 72 h. The cell viability was measured using MTS assay. The combination indices (CI) were calculated using formula CI=AB/(A×B); where AB is the percent cell inhibition by the combination whereas A and B are the percent cell inhibition by individual agents. CI<1 indicates synergism, whereas CI<0.3 indicates strong synergism.

Bcl-xL [2] = biological target: T2, Bcl-xL; assay: Western blot Bcl-XL degradation in additional cancer cells; format: cell-based; set-up: endogenous in cells; conditions: RS4; 11, EJM, H929 (16 h), H146 (48 h); fixed concentration
Method: (§4) MOLT4 cells and human platelets were incubated with increasing concentrations of compound #55 for 16 h. The cells were harvested and lysed in RIPA lysis buffer supplemented with protease and phosphatase inhibitor cocktails. An equal amount of protein (20 μg/lane) was resolved on a pre-cast 4-20% SDS-PAGE gel. Proteins were subsequently transferred to NOVEX PVDF membranes by electrophoresis. The membranes were blocked in blocking buffer (5% non-fat dry milk in TBS-T), and incubated with primary antibodies (at optimized concentrations) overnight at 4° C. After three washings in TBS-T, the membranes were incubated with an appropriate HRP-conjugated secondary antibody for 1 h at room temperature. After extensive washing for three times, the proteins of interest were detected with ECL western blotting detection reagents and recorded with autoradiography (Pierce Biotech, Rockford, IL, USA). […] The relative band intensity was measured using ImageJ software and normalized to b-actin. The DC50 (concentration with 50% degradation) was calculated using GraphPad Prism. […] Bcl-2 levels were not detected, whereas Mcl-1 was unaffected with compound #55 treatment in MOLT4 cells (FIGS. 1B and 1D). […]
(§5) Tumor cells were incubated with a fixed concentration of compound #55 for 16 h (RS4; 11, EJM, H929) or 48 h (H146) and Bcl-2/Bcl-xL/Mcl-1 levels were determined using Western blot analysis as described above.

Bcl-xL [3] = biological target: T2, Bcl-xL; assay: AlphaLISA competitive binding assay, Bcl-xL; set-up: purchased Sigma-Aldrich; conditions: His-tagged Bcl-xL, biotin-tagged Bad peptide, 24 h incubation
Method: as §1

Bcl-xL [4] = biological target: T2, Bcl-xL; assay: Western blot Bcl-xL degradation assay in human platelets; format: cell-based; set-up: endogenous in cells; host or cells: MOLT4; conditions: 16 h
Method: as §2

platelets = assay: Platelet toxicity; format: cell-based; conditions: up to 3 μM; data not shown
Mcl-1 [5] = biological target: T3, Mcl-1 (Homo sapiens, UniProt Q07820); assay: Western blot Mcl-1 levels in additional cancer cells; format: cell-based; set-up: endogenous in cells; host or cells: RS4;11, EJM, H929, H146; conditions: RS4; 11, EJM, H929 (16 h), H146 (48 h); fixed concentration
Method: as §4, §5

[6] = system: caspase-3 and poly (ADP) ribose polymerase (PARP); assay: Western blot of cleaved caspase-3 and PARP in MOLT4 cells; format: cell-based, human; conditions: 0.1 and 0.3 μM, 24 h
Method: At the end of incubation, cells were harvested for western blot analysis of cleaved and full length caspase-3 and poly (ADP) ribose polymerase (PARP). The antibodies for cleaved caspase-3 (Cat #9661), full length caspase-3 (Cat #9662), and PARP (Cat #9532) were purchased from Cell Signaling Technology. A single Anti-PARP antibody used can detect both cleaved and full length PARP.

Bcl-2 [7] = biological target: T4, Bcl-2 (Homo sapiens, UniProt P10415); assay: Western blot Bcl-2 levels in additional cancer cells; format: cell-based; set-up: endogenous in cells; host or cells: RS4;11, EJM, H929, H146; conditions: RS4; 11, EJM, H929 (16 h), H146 (48 h); fixed concentration
Method: as §4, §5

RS4; 11 cells = assay: MTS cell viability assay in RS4; 11 cells; format: cell-based, human
Method: as §6

Mcl-1 [8] = biological target: T3, Mcl-1; assay: Western blot Mcl-1 levels in MOLT4 cells; format: cell-based; set-up: endogenous in cells; conditions: 16 h
Method: MOLT4 cells and human platelets were incubated with increasing concentrations of compound #55 for 16 h. The cells were harvested and lysed in RIPA lysis buffer supplemented with protease and phosphatase inhibitor cocktails. An equal amount of protein (20 μg/lane) was resolved on a pre-cast 4-20% SDS-PAGE gel. Proteins were subsequently transferred to NOVEX PVDF membranes by electrophoresis. The membranes were blocked in blocking buffer (5% non-fat dry milk in TBS-T), and incubated with primary antibodies (at optimized concentrations) overnight at 4° C. After three washings in TBS-T, the membranes were incubated with an appropriate HRP-conjugated secondary antibody for 1 h at room temperature. After extensive washing for three times, the proteins of interest were detected with ECL western blotting detection reagents and recorded with autoradiography (Pierce Biotech, Rockford, IL, USA). The primary antibodies for Bcl-xL (Cat #2762), Bcl-2 (Cat #2872), Mcl-1 (Cat #5453) and β-actin (Cat #4970) were purchased from Cell Signaling technology. The relative band intensity was measured using ImageJ software and normalized to b-actin. The DC50 (concentration with 50% degradation) was calculated using GraphPad Prism. […] Bcl-2 levels were not detected, whereas Mcl-1 was unaffected with compound #55 treatment in MOLT4 cells (FIGS. 1B and 1D). […]

EJM cells = assay: MTS cell viability assay in EJM cells; format: cell-based, human
Method: as §3, with “Multiple Myeloma EJM” for “Small cell lung cancer H146”, “250” for “500”, “S63845 (Mcl-1” for “ABT-199 (Bcl-2”

H929 cells = assay: MTS cell viability assay in H929 cells; format: cell-based, human; conditions: Mcl-1-dependent H929 cells, 72 h
Method: as §6

Bcl-2 [9] = biological target: T4, Bcl-2; assay: AlphaLISA competitive binding assay, Bcl-2; set-up: purchased Sigma-Aldrich; conditions: His-tagged Bcl-2, biotin-tagged BIM peptide, 24 h incubation
Method: as §1

T2 sequence (Q07817 whole entry): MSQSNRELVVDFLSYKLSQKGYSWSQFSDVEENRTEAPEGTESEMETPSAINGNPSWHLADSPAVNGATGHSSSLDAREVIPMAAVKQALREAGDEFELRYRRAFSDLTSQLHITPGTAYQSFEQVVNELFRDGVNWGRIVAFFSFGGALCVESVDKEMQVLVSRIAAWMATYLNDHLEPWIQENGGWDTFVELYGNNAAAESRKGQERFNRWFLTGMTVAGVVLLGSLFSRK
T3 sequence (Q07820 whole entry): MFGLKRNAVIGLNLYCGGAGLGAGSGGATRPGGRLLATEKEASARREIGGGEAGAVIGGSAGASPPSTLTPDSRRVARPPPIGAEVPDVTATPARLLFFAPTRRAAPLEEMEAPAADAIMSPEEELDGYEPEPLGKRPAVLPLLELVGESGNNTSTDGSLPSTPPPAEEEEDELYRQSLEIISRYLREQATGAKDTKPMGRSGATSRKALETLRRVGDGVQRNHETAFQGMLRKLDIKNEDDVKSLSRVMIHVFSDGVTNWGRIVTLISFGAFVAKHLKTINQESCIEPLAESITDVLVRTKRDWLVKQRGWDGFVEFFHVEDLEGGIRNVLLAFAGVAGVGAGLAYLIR
T4 sequence (P10415 whole entry): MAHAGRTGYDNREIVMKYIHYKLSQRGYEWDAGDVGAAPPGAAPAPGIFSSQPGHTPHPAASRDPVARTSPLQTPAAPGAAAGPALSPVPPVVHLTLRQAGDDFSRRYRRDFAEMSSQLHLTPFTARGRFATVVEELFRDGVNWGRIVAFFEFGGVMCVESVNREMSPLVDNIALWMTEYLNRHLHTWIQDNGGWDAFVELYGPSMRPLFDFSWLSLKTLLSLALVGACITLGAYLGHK

## CC1(C)CCC(c2ccc(Cl)cc2)=C(CN2CCN(c3ccc(C(=O)NS(=O)(=O)c4ccc(N[C@H](CCN5CCOCC5)CSc5ccccc5)c(S(=O)(=O)C(F)(F)F)c4)cc3)CC2)C1 [ABT-263, navitoclax, reference compound]
Bcl-w
  Ki: 33.5 nM
MOLT4 cells; MOLT4 cells, with 1 μM and 2 μM VHL-L, 72 h
  cell killing in the presence of VHL-L: could not further induce the cell killing in the presence of VHL-L

## (2S,4R)-1-((S)-2-(7-(4-((R)-3-((4-(N-(4-(4-((4′- Chloro-4,4-dimethyl- 3,4,5,6-tetrahydro-[1,1′-biphenyl]-2- yl)methyl)piperazin-1-yl)benzoyl)sultamoyl)-2- ((trifluoromethyl)sulfonyl)phenyl)amino)-4- (phenylthio)butyl)piperazin-1-yl)-7- oxoheptanamido)-3,3-dimethylbutanoyl)-4-hydroxy- N-((S)-1-(4-(4-methylthiazol-5- yl)phenyl)ethyl)pyrrolidine-2-carboxamide [compound #55]
Bcl-xL [1]; 1 μM ABT-263 pretreatment, 0.1 and 1 μM, 16 h
  Bcl-xL degradation in ABT263-pretreated cells: did not induce Bcl-xL degradation
Bcl-xL [1]; 1 μM MG132 pretreatment, 0.1 and 1 μM, 6 h
  Bcl-xL degradation in MG132-pretreated cells: did not induce Bcl-xL degradation
Bcl-xL [1]; 16 h
  Dmax (maximum degradation) of Bcl-xL: 90.8%
Bcl-xL [1]; 16 h, read-out: DC50 (concentration with 50% degradation) of Bcl-xL
  DC50: 63 nM
Bcl-xL [1]; VHL-L pretreatment, then 16 h
  Bcl-xL degradation in VHL-L-pretreated cells: did not induce Bcl-xL degradation
Bcl-xL [1]; fixed concentration, increasing time points
  time at which significant Bcl-xL degradation starts: 2 h
Bcl-xL [1]; treated 16 hours then drug withdrawal
  Bcl-xL degrading activity after drug withdrawal: able to sustain its Bcl-xL degrading activity for prolonged period after drug withdrawal
Bcl-w
  Ki: 301 nM
H146 cells; Bcl-2/Bcl-xL-dependent H146 cells, 72 h, MTS, read-out: IC50 loss of cell viability
  IC50: 160 nM
H146 cells; H146 cells, 125 nM compound #55 + 500 nM ABT-199, 72 h, MTS
  loss of cell viability in combination with ABT-199: synergistically induce the loss of cell viability
H146 cells; H146 cells, 72 h
  effect on cell viability compared with ABT-263: less prominent than ABT-263
Bcl-xL [2]
  Bcl-XL degradation: capable of degrading Bcl-XL in all these cell lines
Bcl-xL [3]
  Ki: 12.8 nM
Bcl-xL [4]
  Bcl-xL levels: did not affect Bcl-xL levels
  DC50: > 3000 nM
  Dmax of Bcl-xL: 26%
platelets
  platelet toxicity: did not induce any significant platelet toxicity
MOLT4 cells; MOLT4 cells pretreated with 1 and 2 μM VHL-L for 1 h, then 72 h
  cell killing in the presence of VHL-L: abrogated
MOLT4 cells; read-out: IC50 cell viability, Bcl-XL-dependent MOLT4 cells, 72 h, MTS
  IC50: 52 nM
Mcl-1 [5]
  effect on Mcl-1 levels: sparing Bcl-2 and Mcl-1
[6]
  cleavage of caspase-3 and PARP: induced cleavage of caspase-3 and PARP
  cleavage of caspase-3 and PARP compared with ABT263: more pronounced than ABT263
Bcl-2 [7]
  effect on Bcl-2 levels: sparing Bcl-2 and Mcl-1
RS4; 11 cells; Bcl-2-dependent RS4, 72 h, MTS, read-out: IC50 loss of cell viability
  IC50: 230 nM
RS4; 11 cells; RS4, 72 h
  effect on cell viability compared with ABT-263: less prominent than ABT-263
Mcl-1 [8]
  Mcl-1 levels: unaffected
EJM cells; EJM cells, 125 nM compound #55 + 250 nM S63845, 72 h
  loss of cell viability in combination with S63845: synergistically induce the loss of cell viability
EJM cells; Mcl-1-dependent EJM cells, 72 h
  cellular activity: did not show any significant cellular activity
H929 cells
  cellular activity: did not show any significant cellular activity
Bcl-2 [9]
  Ki: 1.82 nM
